Reference: ChEMBL document CHEMBL3045257, “Pyrenocines J-M: four new pyrenocines from the endophytic fungus, Phomopsis sp” (2012)

Experiments:
[Chlorella] fusca = Antialgal activity against 'Chlorella' fusca by agar diffusion test; type: functional, Scenedesmus fuscus
Escherichia coli = assay: Antimicrobial activity against Escherichia coli by agar diffusion test; type: functional
Microbotryum violaceum = assay: Antifungal activity against Microbotryum violaceum by agar diffusion test; type: functional
Priestia megaterium = assay: Antimicrobial activity against Bacillus megaterium by agar diffusion test; type: functional
Zymoseptoria tritici = assay: Antifungal activity against Zymoseptoria tritici by agar diffusion test; type: functional
Botrytis cinerea = assay: Antifungal activity against Botryotinia fuckeliana by agar diffusion test; type: functional
Phytophthora infestans = assay: Antifungal activity against Phytophthora infestans by agar diffusion test; type: functional
Pyricularia oryzae = assay: Antifungal activity against Magnaporthe oryzae by agar diffusion test; type: functional

Q: Which results are given for `C[C@@H]1C[C@@H]([C@H](O)CC2CC(=O)NC(=O)C2)C(=O)[C@@H](C)C1` [CYCLOHEXIMIDE]?
A: inhibition zone (IZ) ([Chlorella] fusca): 35 mm; inhibition zone (IZ) (Escherichia coli): 0 mm; inhibition zone (IZ) (Microbotryum violaceum): 50 mm; inhibition zone (IZ) (Priestia megaterium): 0 mm

Q: `CC1(C)S[C@@H]2[C@H](NC(=O)Cc3ccccc3)C(=O)N2[C@H]1C(=O)O` [PENICILLIN G] was tested. Which “inhibition zone (IZ)” value ([Chlorella] fusca) did it give?
A: Its value is 0 mm.

Q: And the “inhibition zone (IZ)” value (Escherichia coli)?
A: Its value is 14 mm.

Q: And the “inhibition zone (IZ)” value (Microbotryum violaceum)?
A: Its value is 0 mm.

Q: What about the “inhibition zone (IZ)” value (Priestia megaterium) of the same compound?
A: Its value is 18 mm.

Q: For `COc1cc(=O)oc2c1CO[C@@H](CC(C)=O)C2` [PYRENOCINE K], which “inhibition zone (IZ)” value ([Chlorella] fusca) is on record?
A: The value was 6 mm.

Q: And the “inhibition zone (IZ)” value (Escherichia coli)?
A: Its value is 6 mm.

Q: And the “inhibition zone (IZ)” value (Zymoseptoria tritici)?
A: The value was 6 mm.

Q: What about the “inhibition zone (IZ)” value (Botrytis cinerea) of the same compound?
A: The value was 0 mm.

Q: And the “inhibition zone (IZ)” value (Phytophthora infestans)?
A: Its value is 0 mm.

Q: What about the “inhibition zone (IZ)” value (Pyricularia oryzae) of the same compound?
A: The value was 0 mm.

Q: And the “inhibition zone (IZ)” value (Microbotryum violaceum)?
A: The value was 5 mm.

Q: What about the “inhibition zone (IZ)” value (Priestia megaterium) of the same compound?
A: Its value is 8 mm.

Q: With `CCC[C@@H](Cc1oc(=O)cc(OC)c1CO)OC(C)=O` [PYRENOCINE L] as the compound, how does the “inhibition zone (IZ)” value ([Chlorella] fusca) read?
A: Its value is 10 mm.

Q: And the “inhibition zone (IZ)” value (Escherichia coli)?
A: The value was 10 mm.

Q: What about the “inhibition zone (IZ)” value (Zymoseptoria tritici) of the same compound?
A: The value was 0 mm.

Q: And the “inhibition zone (IZ)” value (Botrytis cinerea)?
A: Its value is 0 mm.

Q: And the “inhibition zone (IZ)” value (Phytophthora infestans)?
A: Its value is 0 mm.

Q: And the “inhibition zone (IZ)” value (Pyricularia oryzae)?
A: The value was 0 mm.

Q: What about the “inhibition zone (IZ)” value (Microbotryum violaceum) of the same compound?
A: Its value is 0 mm.

Q: And the “inhibition zone (IZ)” value (Priestia megaterium)?
A: Its value is 9 mm.

Q: Which “inhibition zone (IZ)” value ([Chlorella] fusca) does the source give for `CCCCCc1oc(=O)cc(OC)c1CO` [PYRENOCINE M] here?
A: The value was 5 mm.

Q: What about the “inhibition zone (IZ)” value (Escherichia coli) of the same compound?
A: The value was 5 mm.

Q: What about the “inhibition zone (IZ)” value (Zymoseptoria tritici) of the same compound?
A: Its value is 6 mm.

Q: What about the “inhibition zone (IZ)” value (Botrytis cinerea) of the same compound?
A: The value was 0 mm.

Q: And the “inhibition zone (IZ)” value (Phytophthora infestans)?
A: The value was 0 mm.

Q: And the “inhibition zone (IZ)” value (Pyricularia oryzae)?
A: Its value is 0 mm.

Q: And the “inhibition zone (IZ)” value (Microbotryum violaceum)?
A: Its value is 5 mm.

Q: And the “inhibition zone (IZ)” value (Priestia megaterium)?
A: Its value is 9 mm.

Q: What does the source list for `CN(C)[C@@H]1C(O)=C(C(N)=O)C(=O)[C@@]2(O)C(O)=C3C(=O)c4c(O)cccc4[C@@](C)(O)[C@H]3C[C@@H]12` [TETRACYCLINE]?
A: inhibition zone (IZ) ([Chlorella] fusca): 10 mm; inhibition zone (IZ) (Escherichia coli): 18 mm; inhibition zone (IZ) (Microbotryum violaceum): 0 mm; inhibition zone (IZ) (Priestia megaterium): 18 mm

Q: For NYSTATIN, which inhibition zone (IZ) ([Chlorella] fusca; Scenedesmus fuscus) is on record?
A: The inhibition zone (IZ) was 0 mm.

Q: And the inhibition zone (IZ) (Escherichia coli)?
A: Its inhibition zone (IZ) is 0 mm.

Q: And the inhibition zone (IZ) (Microbotryum violaceum)?
A: Its inhibition zone (IZ) is 20 mm.

Q: And the inhibition zone (IZ) (Priestia megaterium)?
A: Its inhibition zone (IZ) is 0 mm.
